Results on 10 molecules are retold here after patent US10004701B2, “Methods and compositions for treating infection” (UNIVERSITY OF ROCHESTER, priority 2012, dated 2018).

Structures can show the parent of a compound that is named as a salt. Where two headings read alike, the source gives them in different places.

What all share (assay): AK assay 384-well format, Prestwick library screening
One test deals with P. aeruginosa. Format: cell-based, Pseudomonas aeruginosa. As to conditions: 50 μM final drug concentration; for fold induction at 50 µM: Pseudomonas aeruginosa, 3 h, read-out: AK-based Prestwick Library Screening Results, P. aeruginosa (fold increase in extracellular AK activity).
The next test deals with K. pneumoniae. Format: cell-based, Klebsiella pneumoniae. As to conditions: 50 μM final drug concentration; for fold induction at 50 µM: Klebsiella pneumoniae, 3 h, read-out: AK-based Prestwick Library Screening Results, K. pneumoniae (fold increase in extracellular AK activity).
The next test deals with E. coli. In kind it is cell-based, Escherichia coli. The settings on record: 50 μM final drug concentration; for fold induction at 50 µM: Escherichia coli, 3 h, read-out: AK-based Prestwick Library Screening Results, E. coli (fold increase in extracellular AK activity).
In test [1] the test system is A. baumannii strain 98-37-09. In kind it is cell-based, Acinetobacter baumannii. As to conditions: 50 μM final drug concentration; for fold induction at 50 µM: Acinetobacter baumannii, 983709, 3 h, read-out: AK-based Prestwick Library Screening Results, A. baumannii (fold increase in extracellular AK activity).
The test system of test [2] is S. aureus strain USA300-0114. In kind it is cell-based, Staphylococcus aureus. The settings on record: 50 μM final drug concentration; for fold induction at 50 µM: Staphylococcus aureus, USA300, 3 h, read-out: AK-based Prestwick Library Screening Results, S. aureus (fold increase in extracellular AK activity).
For another test, the system named is E. faecium. Format: cell-based, Enterococcus faecium. The settings on record: 50 μM final drug concentration; for fold induction at 50 µM: Enterococcus faecium, 3 h, read-out: AK-based Prestwick Library Screening Results, E. faecium (fold increase in extracellular AK activity).
A further test concerns E. cloacae. In kind it is cell-based, Enterobacter cloacae. As to conditions: 50 μM final drug concentration; for fold induction at 50 µM: Enterobacter cloacae, 3 h, read-out: AK-based Prestwick Library Screening Results, E. cloacae (fold increase in extracellular AK activity).
Setting [3] is: cutoff for positive-scoring molecules 3-fold increase.
Where [4] appears, read: planktonic, cutoff for positive 3-fold increase.
Where [5] appears, read: planktonic, cutoff for positive-scoring molecules 3-fold increase.

`Cl.OC(CCN1CCCCC1)(c1ccccc1)C1CCCCC1` (stereo not shown) [Trihexyphenidyl-D,L Hydrochloride]: in the test with P. aeruginosa (setting [3]), the “AK-based Prestwick Library Screening Results, P. aeruginosa (fold increase in extracellular AK activity)” value turned out to be 1.3. Besides, the “AK-based Prestwick Library Screening Results, K. pneumoniae (fold increase in extracellular AK activity)” value in the test with K. pneumoniae (setting [3]) is 1.1. The “AK-based Prestwick Library Screening Results, E. coli (fold increase in extracellular AK activity)” value with E. coli (setting [3]) stood at 1.2. Further, in test [1] (setting [3]), the “AK-based Prestwick Library Screening Results, A. baumannii (fold increase in extracellular AK activity)” value is 1.4. Moreover, the “AK-based Prestwick Library Screening Results, S. aureus (fold increase in extracellular AK activity)” value in test [2] (setting [3]) is 1.4. For the same molecule, the “AK-based Prestwick Library Screening Results, E. faecium (fold increase in extracellular AK activity)” value in the test on E. faecium (setting [3]) is 1.1. Moreover, in the test with E. cloacae (setting [3]), the “AK-based Prestwick Library Screening Results, E. cloacae (fold increase in extracellular AK activity)” value amounted to 1.5.
`CC[C@@H](C)C(=O)O[C@H]1[C@H](O)[C@H]2[C@@H](CN3C[C@@H](C)CC[C@H]3[C@@]2(C)O)[C@@H]2C[C@]34O[C@]5(O)[C@@H](OC(=O)[C@@](C)(O)CC)CC[C@@]3(C)[C@@H]5[C@@H](OC(C)=O)[C@@H](OC(C)=O)[C@H]4[C@@]21O` [Protoveratrine A]: the “AK-based Prestwick Library Screening Results, P. aeruginosa (fold increase in extracellular AK activity)” value with P. aeruginosa (planktonic, […]) is recorded as 1.1. Moreover, the “AK-based Prestwick Library Screening Results, K. pneumoniae (fold increase in extracellular AK activity)” value in the test with K. pneumoniae (planktonic, […]) is listed as 1.2. The “AK-based Prestwick Library Screening Results, E. coli (fold increase in extracellular AK activity)” value in the test with E. coli (planktonic, […]) is 1.1. Moreover, in test [1] (planktonic, […]), the “AK-based Prestwick Library Screening Results, A. baumannii (fold increase in extracellular AK activity)” value was 1.2. The “AK-based Prestwick Library Screening Results, S. aureus (fold increase in extracellular AK activity)” value in test [2] (planktonic, […]) came to 1.2. In addition, in the test on E. faecium (planktonic, […]), the “AK-based Prestwick Library Screening Results, E. faecium (fold increase in extracellular AK activity)” value worked out at 1.0. The “AK-based Prestwick Library Screening Results, E. cloacae (fold increase in extracellular AK activity)” value in the test with E. cloacae (planktonic, […]) is reported as 1.3.
Regarding Ketanserin tartrate hydrate, the “AK-based Prestwick Library Screening Results, P. aeruginosa (fold increase in extracellular AK activity)” value in the test on P. aeruginosa (setting [4]) worked out at 1.0. Moreover, the “AK-based Prestwick Library Screening Results, K. pneumoniae (fold increase in extracellular AK activity)” value with K. pneumoniae (setting [4]) was determined as 1.0. Besides, the “AK-based Prestwick Library Screening Results, E. coli (fold increase in extracellular AK activity)” value in the test with E. coli (setting [4]) is reported as 1.3. Besides, the “AK-based Prestwick Library Screening Results, A. baumannii (fold increase in extracellular AK activity)” value in test [1] (setting [4]) worked out at 1.2. Further, the “AK-based Prestwick Library Screening Results, S. aureus (fold increase in extracellular AK activity)” value in test [2] (setting [4]) is listed as 1.0. Further, the “AK-based Prestwick Library Screening Results, E. faecium (fold increase in extracellular AK activity)” value in the test with E. faecium (setting [4]) came to 1.0. The “AK-based Prestwick Library Screening Results, E. cloacae (fold increase in extracellular AK activity)” value in the test with E. cloacae (setting [4]) came to 1.4.
Take `O=C(c1ccc(OCCN2CCCCC2)cc1)c1c(-c2ccc(O)cc2)sc2cc(O)ccc12` [Raloxifene hydrochloride]: the fold induction at 50 µM in the test with P. aeruginosa (setting [3]) turned out to be 1.2; in the test with K. pneumoniae (setting [3]) it was 1.1; with E. coli ([…]), 1.5; in test [1] (setting [3]), 1.5; in test [2] (setting [3]) it was 1.2; in the test on E. faecium (setting [3]), 0.9. For the same molecule, the fold induction at 50 µM in the test on E. cloacae (setting [3]) came out at 1.3.
On to `COc1cc(-c2ccc(N=Nc3ccc4c(S(=O)(=O)[O-])cc(S(=O)(=O)[O-])c(N)c4c3O)c(OC)c2)ccc1N=Nc1ccc2c(S(=O)(=O)[O-])cc(S(=O)(=O)[O-])c(N)c2c1O.[Na+].[Na+].[Na+].[Na+]` [Chicago sky blue 6B], for which, in the test with P. aeruginosa (planktonic P. aeruginosa, cutoff for positive-scoring molecules 3-fold increase), the “AK-based Prestwick Library Screening Results, P. aeruginosa (increase in extracellular AK activity)” value is on record as 0.4. In the test on K. pneumoniae (planktonic K. pneumoniae, cutoff for positive-scoring molecules 3-fold increase), the “AK-based Prestwick Library Screening Results, K. pneumoniae (increase in extracellular AK activity)” value came out at 0.3. For the same molecule, in the test with E. coli (planktonic E. coli, cutoff for positive-scoring molecules 3-fold increase), the “AK-based Prestwick Library Screening Results, E. coli (increase in extracellular AK activity)” value is listed as 0.5. Moreover, in test [1] (planktonic A. baumannii, cutoff for positive-scoring molecules 3-fold increase), the “AK-based Prestwick Library Screening Results, A. baumannii (increase in extracellular AK activity)” value was 0.4. Moreover, in test [2] (planktonic S. aureus, cutoff for positive-scoring molecules 3-fold increase), the “AK-based Prestwick Library Screening Results, S. aureus (increase in extracellular AK activity)” value was 0.0. Besides, the “AK-based Prestwick Library Screening Results, E. faecium (increase in extracellular AK activity)” value in the test with E. faecium (planktonic E. faecium, cutoff for positive-scoring molecules 3-fold increase) is recorded as 0.5. Also, the “AK-based Prestwick Library Screening Results, E. cloacae (increase in extracellular AK activity)” value in the test on E. cloacae (planktonic E. cloacae, cutoff for positive-scoring molecules 3-fold increase) came to 0.9.
`COc1ccc(C(=O)c2ccccc2)c(O)c1` [Oxybenzone]: the fold induction at 50 µM with P. aeruginosa (setting [5]) came out at 0.5; in the test with K. pneumoniae (setting [5]), 0.4; in the test with E. coli (setting [5]) it was 0.5; in test [1] (setting [5]), 0.4; in test [2] (setting [5]), 0.4; with E. faecium (setting [5]), 0.7. The fold induction at 50 µM in the test on E. cloacae (setting [5]) amounted to 0.6.
Regarding `CC(C)n1c(/C=C/C(O)CC(O)CC(=O)O)c(-c2ccc(F)cc2)c2ccccc21` (stereo not shown) [Fluvastatin sodium salt], the fold induction at 50 µM worked out at 1 with P. aeruginosa (setting [3]); 0.9 in the test with K. pneumoniae (setting [3]); 1.3 in the test with E. coli (setting [3]); 0.9 in test [1] (setting [3]); 1 in test [2] (setting [3]); 1 with E. faecium (setting [3]). For the same molecule, in the test with E. cloacae (setting [3]), the fold induction at 50 µM was 1.7.
For the molecule `COc1cc2c3cc1Oc1cc(ccc1O)C[C@@H]1c4c(cc(OC)c(O)c4Oc4ccc(cc4)C[C@@H]3N(C)CC2)CC[N+]1(C)C.Cl.O.O.O.O.O.[Cl-]` [Tubocurarine chloride pentahydrate (+)], the “AK-based Prestwick Library Screening Results: P. aeruginosa (increase in extracellular AK activity)” value in the test on P. aeruginosa (planktonic P. aeruginosa, 384-well, […]) was determined as 0.6. Besides, the “AK-based Prestwick Library Screening Results: K. pneumoniae (increase in extracellular AK activity)” value in the test on K. pneumoniae (planktonic K. pneumoniae, 384-well, […]) is on record as 0.6. The “AK-based Prestwick Library Screening Results: E. coli (increase in extracellular AK activity)” value in the test on E. coli (planktonic E. coli, 384-well, […]) is recorded as 0.7. For the same molecule, in test [1] (planktonic A. baumannii, 384-well, […]), the “AK-based Prestwick Library Screening Results: A. baumannii (increase in extracellular AK activity)” value is on record as 0.7. Moreover, in test [2] (planktonic S. aureus, 384-well, […]), the “AK-based Prestwick Library Screening Results: S. aureus (increase in extracellular AK activity)” value is on record as 0.5. In the test with E. faecium (planktonic E. faecium, 384-well, […]), the “AK-based Prestwick Library Screening Results: E. faecium (increase in extracellular AK activity)” value was 0.9. Also, the “AK-based Prestwick Library Screening Results: E. cloacae (increase in extracellular AK activity)” value in the test on E. cloacae (planktonic E. cloacae, 384-well, […]) worked out at 0.6.
With `Cc1cc(C(=O)NNCc2ccccc2)no1` [Isocarboxazid], the fold induction at 50 µM in the test with P. aeruginosa (setting [3]) was 1.1; in the test with K. pneumoniae (setting [3]), 1.1; with E. coli (setting [3]), 1.1; in test [1] (setting [3]), 1.1; in test [2] (setting [3]), 1.5; in the test on E. faecium (setting [3]) it was 1. Also, the fold induction at 50 µM in the test on E. cloacae (setting [3]) was found to be 1.5.
As to `OC(CCN1CCCC1)(c1ccccc1)C1CCCCC1` (stereo not shown) [Procyclidine hydrochloride], the fold induction at 50 µM in the test on P. aeruginosa (setting [3]) was determined as 1.2; in the test with K. pneumoniae (setting [3]) it was 0.9; in the test with E. coli (setting [3]) it was 1.4; in test [1] (setting [3]), 1.1; in test [2] (setting [3]) it was 1.2; in the test with E. faecium (setting [3]) it was 1.1. Moreover, in the test on E. cloacae (setting [3]), the fold induction at 50 µM stood at 1.8.
